Measurements reported in US20230148070A1, “AMINO ACID DERIVATIVES AND THEIR USE AS FLAVOR MODIFIERS” (Firmenich SA, priority 2020, published 2023).

What was measured:
[1] = Sensory Testing 1: Savory Model (trained panel, umami and saltiness); format: in vivo; conditions: 10 ppm; panel of 20-22 trained panelists; score on scale -5 (strong masking) to 5 (strong enhancing), 0 = reference water solution with 0.25% NaCl and 0.05% MSG
Protocol: Each of Compound 101, Compound 102, Compound 103, Compound 104, Compound 105, Compound 106, Compound 107, Compound 108 and Compound 109 was tested for taste properties, particularly umami and saltiness. A panel of 20-22 trained panelists evaluated the samples of each test compound at 10 ppm for umami taste properties and saltiness taste properties, and scored the solutions on a scale ranging from −5 to 5 (with −5 denoting a strong masking effect, and 5 denoting a strong enhancing effect, and 0 representing the intensity of a reference water solution containing 0.25% sodium chloride (NaCl) and 0.05% monosodium glutamate (MSG), respectively).

[2] = Sensory Testing 2: Chicken Soup (expert panel, salt, umami, meaty, kokumi); format: in vivo; conditions: 10 ppm, panel of 8 experts, score on scale -5 to 5, 0 = reference water solution with 1.26% Chicken base, 0.7% NaCl, 0.04% MSG; for Mouth-coating / Round / Thick: kokumi
Protocol: Each of Compound 103, Compound 104 and Compound 109 was tested for flavor, taste and mouthfeel properties, particularly kokumi. A panel of 8 experts evaluated the samples of each test compound at 10 ppm for salt, umami, meaty, and kokumi (mouthcoating, round and thick) properties, and scored the solutions on a scale ranging from −5 to 5 (with −5 denoting a strong masking effect, and 5 denoting a strong enhancing effect, and 0 representing the intensity of a reference water solution containing 1.26% Chicken base, 0.7% NaCl, and 0.04% MSG, respectively).

SMILES | Saltiness [1] | Umami [1] | Meaty [2] | Saltiness [2] | Umami [2] | Mouth-coating [2] | Round [2] | Thick [2]
NC(CCC(=O)NCCc1ccc(O)cc1)C(=O)O (stereo not drawn) [Compound 106] | 0.33 | 0.51 | – | – | – | – | – | –
N=C(N)NCCCC(NC(=O)CCC(=O)O)C(=O)O (stereo not drawn) [Compound 107] | 0.61 | 0.66 | – | – | – | – | – | –
COc1ccc(CNC(=O)CCC(N)C(=O)O)cc1 (stereo not drawn) [Compound 105] | 0.38 | 0.76 | – | – | – | – | – | –
NC(CCC(=O)NCCCC(=O)O)C(=O)O (stereo not drawn) [Compound 103] | 0.64 | 0.73 | 0.67 | 0.67 | 0.83 | 1.08 | 0.92 | 0.92
N=C(N)NCCCC(NC(=O)c1ccc(O)cc1)C(=O)O (stereo not drawn) [Compound 108] | 0.49 | 0.47 | – | – | – | – | – | –
C[C@H](CNC(=O)CC[C@H](N)C(=O)O)C(=O)O [Compound 104] | 0.96 | 0.32 | 0.42 | 0.75 | 0.75 | 0.75 | 0.50 | 0.58
C[C@@H](CNC(=O)CC[C@H](N)C(=O)O)C(=O)O [Compound 109] | 0.58 | 0.50 | 0 | 0.92 | 0.58 | 0.83 | 0.58 | 0.83
NC(CCC(=O)NCCO)C(=O)O (stereo not drawn) [Compound 102] | 0.44 | 0.46 | – | – | – | – | – | –
CC(C)NC(=O)CCC(N)C(=O)O (stereo not drawn) [Compound 101] | 0.79 | 0.06 | – | – | – | – | – | –
